In publication PMC11212140, “Molecular Bidents with Two Electrophilic Warheads as a New Pharmacological Modality” (ACS Central Science, 2024):

What was measured:
Experiment in all cases: KiNativ profiling in H3255 cells
Format in all cases: cell-based, human
CLK2 = test system: T1, CLK2; conditions: 2.5 µM; Lys2; LTHTDLKPENILFVNSDYELTYNLEK
T1 construct: purchased ActivX Biosciences (KiNativ)
Method: (§1) H3255 cells were plated with 6.5x10^6 per condition in fresh media in 15 cm plates and treated the 80% confluency for 2 hours with DMSO or 2.5 μM of ZNL-0056. To harvest cells, plates were washed 3 times with cold PBS, then collected by scraping into 4 mL of cold PBS containing protease and phosphatase inhibitors. Cells were pelleted by centrifugation at 1350 g at 4 ℃ for 5 minutes and immediately frozen in liquid nitrogen. The frozen samples were sent to ActivX Biosciences (La Jolla, CA) for the remainder of the KiNativ profiling experiment4. […]

Wnk1, Wnk2, Wnk3 = conditions: 2.5 µM; Lys2; DLKCDNIFITGPTGSVK
Method: as §1

CaMK1d = test system: T2, CaMK1d; conditions: 2.5 µM
T2 construct: purchased ActivX Biosciences (KiNativ)
Method: as §1

EphB2 = test system: T3, EphB2; conditions: 2.5 µM; Activation Loop; FLEDDTSDPTYTSALGGKIPIR
T3 construct: purchased ActivX Biosciences (KiNativ)
Method: as §1

MST2 = test system: T4, MST2; conditions: 2.5 µM; Lys1; ESGQVVAIKQVPVESDLQEIIK
T4 construct: purchased ActivX Biosciences (KiNativ)
Method: as §1

PKCi = test system: T5, PKCi; conditions: 2.5 µM
T5 construct: purchased ActivX Biosciences (KiNativ)
Method: as §1

BRAF, RAF1 = conditions: 2.5 µM; Activation Loop; IGDFGLATVKSR
Method: as §1

PHKg2 = test system: T6, PHKg2; conditions: 2.5 µM; Lys1; ATGHEFAVKIMEVTAER
T6 construct: purchased ActivX Biosciences (KiNativ)
Method: as §1

PCTAIRE1, PCTAIRE3 = conditions: 2.5 µM; Lys2; DLKPQNLLINER
Method: as §1

MST3 = test system: T7, MST3; conditions: 2.5 µM; Lys2; DIKAANVLLSEHGEVK
T7 construct: purchased ActivX Biosciences (KiNativ)
Method: as §1

FAM20B = test system: T8, FAM20B; conditions: 2.5 µM; ATP; ETEPACADGDIMEGSVTLWLPDVWPLQKHR
T8 construct: purchased ActivX Biosciences (KiNativ)
Method: as §1

TLK1 = test system: T9, TLK1; conditions: 2.5 µM
T9 construct: purchased ActivX Biosciences (KiNativ)
Method: as §1

[1] = test system: ZC1/HGK, ZC2/TNIK, ZC3/MINK; conditions: 2.5 µM; Lys2; DIKGQNVLLTENAEVK
Method: as §1

MSK2 domain1 = test system: T10, MSK2 domain1; conditions: 2.5 µM
T10 construct: MSK2 domain1; purchased ActivX Biosciences (KiNativ)
Method: as §1

ROCK1 = test system: T11, ROCK1; conditions: 2.5 µM; Other; KLQLELNQER
T11 construct: purchased ActivX Biosciences (KiNativ)
Method: as §1

TLK2 = test system: T12, TLK2; conditions: 2.5 µM
T12 construct: purchased ActivX Biosciences (KiNativ)
Method: as §1

PCTAIRE2, PCTAIRE3 = conditions: 2.5 µM; Lys1; SKLTENLVALKEIR
Method: as §1

NEK1 = test system: T13, NEK1; conditions: 2.5 µM; Lys2; DIKSQNIFLTK
T13 construct: purchased ActivX Biosciences (KiNativ)
Method: as §1

PI4KA, PI4KAP2 = conditions: 2.5 µM; ATP; SGTPMQSAAKAPYLAK
Method: as §1

MLK3 = test system: T14, MLK3; conditions: 2.5 µM; Lys2; DLKSNNILLLQPIESDDMEHK
T14 construct: purchased ActivX Biosciences (KiNativ)
Method: as §1

NEK4 = test system: T15, NEK4; conditions: 2.5 µM; Lys2; DLKTQNVFLTR
T15 construct: purchased ActivX Biosciences (KiNativ)
Method: as §1

PI4KB = test system: T16, PI4KB; conditions: 2.5 µM, ATP
T16 construct: purchased ActivX Biosciences (KiNativ)
Method: as §1

MAP2K1 = test system: T17, MAP2K1; conditions: 2.5 µM; Lys2; IMHRDVKPSNILVNSR
T17 construct: purchased ActivX Biosciences (KiNativ)
Method: as §1

ATM = test system: T18, ATM; conditions: 2.5 µM; ATP; QLVKGRDDLRQDAVMQQVFQMCNTLLQR
T18 construct: purchased ActivX Biosciences (KiNativ)
Method: as §1

RSK2 domain1 = test system: T19, RSK2 domain1; conditions: 2.5 µM
T19 construct: RSK2 domain1; purchased ActivX Biosciences (KiNativ)
Method: as §1

CK1a = test system: T20, CK1a; conditions: 2.5 µM; Lys2; DIKPDNFLMGIGR
T20 construct: purchased ActivX Biosciences (KiNativ)
Method: as §1

AurB = test system: T21, AurB; conditions: 2.5 µM; Lys1; SHFIVALKVLFK
T21 construct: purchased ActivX Biosciences (KiNativ)
Method: as §1

YES = test system: T22, YES; conditions: 2.5 µM; Lys1; VAIKTLKPGTMMPEAFLQEAQIMK
T22 construct: purchased ActivX Biosciences (KiNativ)
Method: as §1

MARK2, MARK3 = conditions: 2.5 µM; Lys2; DLKAENLLLDADMNIK
Method: as §1

p70S6Kb = test system: T23, p70S6Kb; conditions: 2.5 µM; Lys2; DLKPENIMLSSQGHIK
T23 construct: purchased ActivX Biosciences (KiNativ)
Method: as §1

MLKL = test system: T24, MLKL; conditions: 2.5 µM; Lys1; APVAIKVFK
T24 construct: purchased ActivX Biosciences (KiNativ)
Method: as §1

SGK = test system: T25, SGK; conditions: 2.5 µM
T25 construct: purchased ActivX Biosciences (KiNativ)
Method: as §1

[2] = Lys2, YLNEIKPPIIHYDLKPGNILLVDGTACGEIK
[3] = Lys2, YLNEIKPPIIHYDLKPGNILLVNGTACGEIK
[4] = Activation Loop, LTDFGLSKESIDHEKK

**Q.** For `C=CC(=O)Nc1cc(Nc2nccc(-c3cn(C)c4ccccc34)n2)c(OC)cc1N(C)CCN(C)C` [Osimertinib, osimertinib, reference compound], which Inhibition (CLK2) is on record?
**A.** 26.6%

**Q.** What about the Inhibition (Wnk1, Wnk2, Wnk3) of the same compound?
**A.** 11.9%

**Q.** What about the Inhibition (CaMK1d; Lys1, LFAVKCIPK) of the same compound?
**A.** -14.3%

**Q.** What about the Inhibition (CaMK1d; Lys2, DLKPENLLYYSQDEESK) of the same compound?
**A.** -8.2%

**Q.** What about the Inhibition (EphB2) of the same compound?
**A.** 1.1%

**Q.** And the Inhibition (MST2)?
**A.** -13.5%

**Q.** What about the Inhibition (PKCi; Lys1, IYAMKVVK) of the same compound?
**A.** 5.6%

**Q.** What about the Inhibition (PKCi; Lys2, DLKLDNVLLDSEGHIK) of the same compound?
**A.** -27.3%

**Q.** And the Inhibition (BRAF, RAF1)?
**A.** -21.1%

**Q.** And the Inhibition (PHKg2)?
**A.** -24.7%

**Q.** And the Inhibition (PCTAIRE1, PCTAIRE3)?
**A.** 8.7%

**Q.** And the Inhibition (MST3)?
**A.** -15.5%

**Q.** And the Inhibition (FAM20B)?
**A.** 20.1%

**Q.** And the Inhibition (TLK1; Lys1, YAAVKIHQLNK)?
**A.** -53.3%

**Q.** And the Inhibition (TLK1; [2])?
**A.** 7.2%

**Q.** And the Inhibition [1]?
**A.** 16.3%

**Q.** What about the Inhibition (MSK2 domain1; Lys1, LYAMKVLR) of the same compound?
**A.** -36.1%

**Q.** What about the Inhibition (MSK2 domain1; Lys2, DLKLENVLLDSEGHIVLTDFGLSK) of the same compound?
**A.** 5.0%

**Q.** And the Inhibition (ROCK1)?
**A.** -7.6%

**Q.** And the Inhibition (TLK2; Lys1, YVAVKIHQLNK)?
**A.** 25.0%

**Q.** And the Inhibition (TLK2; [3])?
**A.** 3.9%

**Q.** What about the Inhibition (PCTAIRE2, PCTAIRE3) of the same compound?
**A.** -33.1%

**Q.** What about the Inhibition (NEK1) of the same compound?
**A.** -34.8%

**Q.** And the Inhibition (PI4KA, PI4KAP2)?
**A.** 30.1%

**Q.** What about the Inhibition (MLK3) of the same compound?
**A.** -1.5%

**Q.** And the Inhibition (NEK4)?
**A.** -12.6%

**Q.** What about the Inhibition (PI4KB; LLSVIVKCGDDLRQELLAFQVLK) of the same compound?
**A.** -20.5%

**Q.** And the Inhibition (PI4KB; VPHTQAVVLNSKDK)?
**A.** 21.1%

**Q.** And the Inhibition (MAP2K1)?
**A.** -20.8%

**Q.** What about the Inhibition (ATM) of the same compound?
**A.** 24.6%

**Q.** What about the Inhibition (RSK2 domain1; [4]) of the same compound?
**A.** -31.9%

**Q.** What about the Inhibition (RSK2 domain1; Lys1, QLYAMKVLK) of the same compound?
**A.** 3.3%

**Q.** What about the Inhibition (CK1a) of the same compound?
**A.** 12.6%

**Q.** What about the Inhibition (AurB) of the same compound?
**A.** 9.9%

**Q.** What about the Inhibition (YES) of the same compound?
**A.** 19.6%

**Q.** And the Inhibition (MARK2, MARK3)?
**A.** -12.0%

**Q.** What about the Inhibition (p70S6Kb) of the same compound?
**A.** -28.8%

**Q.** And the Inhibition (MLKL)?
**A.** -10.0%

**Q.** What about the Inhibition (SGK; Lys1, HKAEEVFYAVKVLQK) of the same compound?
**A.** 13.2%

**Q.** And the Inhibition (SGK; Lys2, DLKPENILLDSQGHIVLTDFGLCK)?
**A.** -15.1%

**Q.** What does the source list for `C=CC(=O)Nc1cc(C(=O)Nc2nc3cccc(C)c3n2[C@@H]2CCCCN(C(=O)C=C)C2)cs1` [ZNL-0056]?
**A.** Inhibition (CLK2): 9.5%; Inhibition (Wnk1, Wnk2, Wnk3): -34.6%; Inhibition (CaMK1d; Lys1, LFAVKCIPK): 11.3%; Inhibition (CaMK1d; Lys2, DLKPENLLYYSQDEESK): 2.0%; Inhibition (EphB2): -8.5%; Inhibition (MST2): -6.8%; Inhibition (PKCi; Lys1, IYAMKVVK): 2.3%; Inhibition (PKCi; Lys2, DLKLDNVLLDSEGHIK): 15.4%; Inhibition (BRAF, RAF1): -19.4%; Inhibition (PHKg2): -4.2%; Inhibition (PCTAIRE1, PCTAIRE3): -3.3%; Inhibition (MST3): -1.1%; Inhibition (FAM20B): -17.9%; Inhibition (TLK1; Lys1, YAAVKIHQLNK): 31.3%; Inhibition (TLK1; [2]): 13.1%; Inhibition [1]: 9.3%; Inhibition (MSK2 domain1; Lys1, LYAMKVLR): -2.6%; Inhibition (MSK2 domain1; Lys2, DLKLENVLLDSEGHIVLTDFGLSK): 18.7%; Inhibition (ROCK1): -20.4%; Inhibition (TLK2; Lys1, YVAVKIHQLNK): 15.3%; Inhibition (TLK2; [3]): 18.3%; Inhibition (PCTAIRE2, PCTAIRE3): -16.7%; Inhibition (NEK1): -5.2%; Inhibition (PI4KA, PI4KAP2): -23.5%; Inhibition (MLK3): 26.8%; Inhibition (NEK4): 7.6%; Inhibition (PI4KB; LLSVIVKCGDDLRQELLAFQVLK): -9.0%; Inhibition (PI4KB; VPHTQAVVLNSKDK): -25.9%; Inhibition (MAP2K1): -10.3%; Inhibition (ATM): -1.9%; Inhibition (RSK2 domain1; [4]): -17.5%; Inhibition (RSK2 domain1; Lys1, QLYAMKVLK): 0.2%; Inhibition (CK1a): 10.2%; Inhibition (AurB): 14.4%; Inhibition (YES): -13.4%; Inhibition (MARK2, MARK3): 9.0%; Inhibition (p70S6Kb): -8.5%; Inhibition (MLKL): 4.5%; Inhibition (SGK; Lys1, HKAEEVFYAVKVLQK): 12.6%; Inhibition (SGK; Lys2, DLKPENILLDSQGHIVLTDFGLCK): 1.7%
